Where two headings read alike, the source gives them in different places.
Assays:
[1] = Stability experiment: high humidity test; format: physicochemical; conditions: for Appearance / Total impurity %: 25°C, RH 90%±5%; for Total impurity %: HPLC
Procedure: (§1) Test samples: crystalline form I was prepared by referring to any method of Example 2, and amorphous form was prepared by referring to Example 1.
• (2) High humidity test: an appropriate amount of the test sample was taken into a flat weighing bottle, spread into a thin layer with a thickness of ≤5 mm. The samples were placed at 25° C. and RH for 90%±5% for 30 days. The samples were taken for testing according to the key stability inspection items on the 5th, 10th, and 30th day. The color change of the samples was observed. The purity of the samples was determined by HPLC.

[2] = Stability experiment: light test; format: physicochemical; conditions: for Appearance / Total impurity %: 25°C, white light 4990 lux; for Total impurity %: HPLC
Procedure: as §1
• (3) Light test: an appropriate amount of the test sample was taken into a flat weighing bottle, spread into a thin layer with a thickness of ≤5 mm. The samples were placed in a light box (with a UV lamp) and placed under the conditions of 25° C., white light 4990 lux, and UV 1.4 W·h/m^2 for 30 days. The samples were taken for testing on the 5th, 10th, and 30th day. The color change of the samples was observed. The purity of the samples was determined by HPLC.

[3] = Pharmacokinetic experiment, oral capsule in Beagle dogs; format: in vivo; conditions: 5 mg/kg; for AUClast / Cmax / Tmax: male Beagle dogs
Procedure: The crystalline form I prepared by referring to any method of Example 2 was filled into capsules, which are used for oral administration.
8-12 kg Male Beagle dogs were divided into 2 groups, and 3 in each group. Each Beagle dog was orally administered the capsule containing the test sample at a dose of 5 mg/kg, and blood was collected at time points of 0.25, 0.5, 1.0, 2.0, 4.0, 6.0, 8.0 and 24 hours. Standard curve was plotted based on concentrations of the samples in a suitable range, the concentration of the test sample in the plasma sample was measured and quantified by AB SCIEX API4000 LC-MS/MS at MRM mode. Pharmacokinetic parameters were calculated according to drug concentration-time curve using a noncompartmental method by WinNonLin 6.3 software.
A pharmacokinetic experiment of the amorphous form prepared with reference to Example 1 was carried out according to the above method, and the results are shown in Table 1.

[4] = Stability experiment: high temperature test; format: physicochemical; conditions: for Appearance / Total impurity %: 60°C±2°C; for Total impurity %: HPLC
Procedure: as §1
The following tests of test samples were carried out: • (1) High temperature test: an appropriate amount of the test sample was taken into a flat weighing bottle, spread into a thin layer with a thickness of ≤5 mm. The samples were placed at 60° C.±2° C. for 30 days. The samples were taken for testing according to the key stability inspection items on the 5th, 10th, and 30th day. The color change of the samples was observed. The purity of the samples was determined by HPLC.

[5] = Hygroscopicity experiment (dynamic moisture adsorption, DVS); format: physicochemical; conditions: for The hygroscopicity feature: Chinese Pharmacopoeia 2020 definition, 25°C±1°C, 80%±2% relative humidity; for Weight gain at 60% relative humidity/% / Weight gain at 80% relative humidity/% / Weight gain at 95% relative humidity/%: DVS, 25°C
Procedure: The hygroscopicity of the present invention was measured by a DVS INT-Std dynamic moisture and gas adsorption analyzer from Surface Measurement Systems, UK. The humidity test range: 0%-95%, air flow: 200 mL/min, temperature: 25° C., test point: every 5% increase in humidity to take a test point.
Test samples: crystalline form I prepared by referring to any method of Example 2, and amorphous form prepared by referring to Example 1.
An appropriate amount of the test sample was taken, and the hygroscopicity was tested by a dynamic moisture adsorption device. The description of the hygroscopicity feature and the definition of the hygroscopicity gain (Chinese Pharmacopoeia 2020 edition. Appendix 9103 Guidelines for drug dampness test, experimental, conditions: 25° C.±1° C. 80%±2% relative humidity) as described in Table 6 below: […]

[6] = Stability experiment: accelerated test; format: physicochemical; conditions: for Total impurity % / Appearance: 40±2°C/75%±5% RH; for Total impurity %: HPLC; for Appearance: PE package plus aluminum foil
Procedure: as §1
• (4) Accelerated test: an appropriate amount of crystalline form I test samples in a single-layer PE package plus aluminum foil packaging was stored for 6 months under the conditions of 40±2° C./75%±5% RH. Samples were taken for testing in the 1st, 2nd, 3rd and 6th month. The color change of the samples was observed. The purity of the samples was determined by HPLC.

SMILES: Cc1c(C(=O)Nc2ccc(S(C)(=O)=O)c(F)c2)cn(CCO)c1-c1ccccc1C(F)(F)F [Amorphous form, (S)-1-(2-hydroxyethyl)-4-methyl-N-(3-fluoro-4-(methylsulfonyl)phenyl)-5-(2-(trifluoromethyl)phenyl)-1H-pyrrole-3-carboxamide]
- Appearance ([1]; 0 day): Off-white
- Total impurity % ([1]; 0 day): 0.40%
- Appearance ([1]; 5 days): Off-white
- Total impurity % ([1]; 5 days): 0.47%
- Appearance ([1]; 10 days): Off-white
- Total impurity % ([1]; 10 days): 0.53%
- Appearance ([1]; 30 days): Off-white
- Total impurity % ([1]; 30 days): 0.57%
- Appearance ([2]; UV 1.4 W·h/m^2, 0 day): Off-white
- Total impurity % ([2]; UV 1.4 W·h/m^2, 0 day): 0.40%
- Total impurity % ([2]; UV 1.4 W·h/m^2, 5 days): 0.85%
- Total impurity % ([2]; UV 1.4 W·h/m^2, 10 days): 1.79%
- Total impurity % ([2]; UV 1.4 W·h/m^2, 30 days): 3.47%
- AUClast [3]: 20900 ng·h/mL
- Cmax [3]: 913 ng/mL
- Tmax [3]: 3.33 h
- Appearance ([4]; 0 day): Off-white
- Total impurity % ([4]; 0 day): 0.40%
- Appearance ([4]; 5 days): Off-white
- Total impurity % ([4]; 5 days): 0.46%
- Appearance ([4]; 10 days): Off-white
- Total impurity % ([4]; 10 days): 0.55%
- Appearance ([4]; 30 days): Off-white
- Total impurity % ([4]; 30 days): 1.28%
- The hygroscopicity feature [5]: slight hygroscopicity
- Weight gain at 60% relative humidity/% [5]: 1.401%
- Weight gain at 80% relative humidity/% [5]: 1.826%
- Weight gain at 95% relative humidity/% [5]: 2.707%

SMILES: Cc1c(C(=O)Nc2ccc(S(C)(=O)=O)c(F)c2)cn(CCO)c1-c1ccccc1C(F)(F)F [Crystalline form I, (S)-1-(2-hydroxyethyl)-4-methyl-N-(3-fluoro-4-(methylsulfonyl)phenyl)-5-(2-(trifluoromethyl)phenyl)-1H-pyrrole-3-carboxamide]
- Appearance ([1]; 0 day): White
- Total impurity % ([1]; 0 day): 0.34%
- Appearance ([1]; 5 days): White
- Total impurity % ([1]; 5 days): 0.35%
- Appearance ([1]; 10 days): White
- Total impurity % ([1]; 10 days): 0.36%
- Appearance ([1]; 30 days): White
- Total impurity % ([1]; 30 days): 0.34%
- change of appearance and purity ([1]; high humidity (25°C, RH 90%±5%), 30 days): no obvious changes
- Appearance ([2]; UV 1.4 W·h/m^2, 0 day): White
- Total impurity % ([2]; UV 1.4 W·h/m^2, 0 day): 0.34%
- Appearance ([2]; UV 1.4 W·h/m^2, 5 days): White
- Total impurity % ([2]; UV 1.4 W·h/m^2, 5 days): 0.34%
- Appearance ([2]; UV 1.4 W·h/m^2, 10 days): White
- Total impurity % ([2]; UV 1.4 W·h/m^2, 10 days): 0.32%
- Appearance ([2]; UV 1.4 W·h/m^2, 30 days): White
- Total impurity % ([2]; UV 1.4 W·h/m^2, 30 days): 0.49%
- change of appearance and purity ([2]; light, 30 days): no obvious changes
- exposure and blood drug concentration compared with the amorphous form ([3]; Beagle dogs): higher exposure and blood drug concentration than the amorphous form
- AUClast [3]: 42300 ng·h/mL
- Cmax ([3]; male, Beagle, dog, plasma, po, read-out: Cmax): 1450 ng/mL
- Tmax ([3]; male, Beagle, dog, plasma, po, read-out: Tmax): 4 h
- Appearance ([4]; 0 day): White
- Total impurity % ([4]; 0 day): 0.34%
- Appearance ([4]; 5 days): White
- Total impurity % ([4]; 5 days): 0.36%
- Appearance ([4]; 10 days): White
- Total impurity % ([4]; 10 days): 0.34%
- Appearance ([4]; 30 days): White
- Total impurity % ([4]; 30 days): 0.34%
- change of appearance and purity ([4]; high temperature (60°C), 30 days): no obvious changes
- Total impurity % ([6]; 0 day): 0.78%
- Total impurity % ([6]; 1 month): 0.72%
- Total impurity % ([6]; 2 months): 0.73%
- Total impurity % ([6]; 3 months): 0.73%
- Total impurity % ([6]; 6 months): 0.71%
- Appearance ([6]; 0 day): White
- Appearance ([6]; 1 month): White
- Appearance ([6]; 2 months): White
- Appearance ([6]; 3 months): White
- Appearance ([6]; 6 months): White
- change of appearance and purity ([6]; accelerated test conditions, 6 months): do not change significantly
- The hygroscopicity feature [5]: no or almost no hygroscopicity
- Weight gain at 60% relative humidity/% [5]: 0.120%
- Weight gain at 80% relative humidity/% [5]: 0.185%
- Weight gain at 95% relative humidity/% [5]: 0.304%

— patent US20240376051A1, “CRYSTALLINE FORM OF PYRROLE AMIDE COMPOUND, PREPARATION METHOD THEREFOR AND USE THEREOF” (SUNSHINE LAKE PHARMA CO., LTD., priority 2021, published 2024)
